Test results: ChEMBL document CHEMBL1799960, “Diadenosine 5',5''-(boranated)polyphosphonate analogues as selective nucleotide pyrophosphatase/phosphodiesterase inhibitors” (J Med Chem, 2010)

Assays:
[1] = target: T1, Ectonucleotide pyrophosphatase/phosphodiesterase family member 1 (Homo sapiens) (UniProt P22413); experiment: Inhibition of human NPP1 expressed in COS7 cells assessed as production of p-nitrophenol using Ap5A as the substrate at 100 uM after 30 mins […]; assay type: cell-based; conditions: COS-7
T1 sequence (whole entry): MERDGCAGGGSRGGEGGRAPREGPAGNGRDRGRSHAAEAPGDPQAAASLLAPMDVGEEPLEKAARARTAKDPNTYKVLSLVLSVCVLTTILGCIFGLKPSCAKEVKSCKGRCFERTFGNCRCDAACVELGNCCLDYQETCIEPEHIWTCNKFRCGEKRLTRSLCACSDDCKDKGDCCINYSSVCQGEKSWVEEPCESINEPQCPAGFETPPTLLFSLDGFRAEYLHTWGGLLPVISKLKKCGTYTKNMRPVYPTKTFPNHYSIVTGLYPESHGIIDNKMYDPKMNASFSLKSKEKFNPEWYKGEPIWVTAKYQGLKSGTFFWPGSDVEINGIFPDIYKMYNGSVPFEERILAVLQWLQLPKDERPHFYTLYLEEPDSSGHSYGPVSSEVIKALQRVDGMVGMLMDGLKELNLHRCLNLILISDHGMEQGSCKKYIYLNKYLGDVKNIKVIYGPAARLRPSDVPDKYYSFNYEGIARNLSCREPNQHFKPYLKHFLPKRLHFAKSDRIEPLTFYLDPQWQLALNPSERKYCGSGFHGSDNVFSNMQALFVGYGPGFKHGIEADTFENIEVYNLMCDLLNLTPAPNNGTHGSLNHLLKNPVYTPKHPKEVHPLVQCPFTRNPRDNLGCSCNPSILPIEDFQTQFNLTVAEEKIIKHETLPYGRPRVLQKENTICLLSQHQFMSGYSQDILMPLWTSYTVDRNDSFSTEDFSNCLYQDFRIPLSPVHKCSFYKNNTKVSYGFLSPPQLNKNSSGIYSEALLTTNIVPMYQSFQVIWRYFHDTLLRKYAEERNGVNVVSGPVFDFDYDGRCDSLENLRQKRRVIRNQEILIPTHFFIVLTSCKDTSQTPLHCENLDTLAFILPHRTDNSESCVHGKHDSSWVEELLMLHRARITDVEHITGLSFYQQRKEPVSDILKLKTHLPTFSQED

[2] = target: T2, Ectonucleotide pyrophosphatase/phosphodiesterase family member 3 (Homo sapiens) (UniProt O14638); experiment: Inhibition of human NPP3 expressed in COS7 cells assessed as production of p-nitrophenol using Ap5A as the substrate at 100 uM after 30 mins […]; assay type: cell-based; conditions: COS-7
T2 sequence (whole entry): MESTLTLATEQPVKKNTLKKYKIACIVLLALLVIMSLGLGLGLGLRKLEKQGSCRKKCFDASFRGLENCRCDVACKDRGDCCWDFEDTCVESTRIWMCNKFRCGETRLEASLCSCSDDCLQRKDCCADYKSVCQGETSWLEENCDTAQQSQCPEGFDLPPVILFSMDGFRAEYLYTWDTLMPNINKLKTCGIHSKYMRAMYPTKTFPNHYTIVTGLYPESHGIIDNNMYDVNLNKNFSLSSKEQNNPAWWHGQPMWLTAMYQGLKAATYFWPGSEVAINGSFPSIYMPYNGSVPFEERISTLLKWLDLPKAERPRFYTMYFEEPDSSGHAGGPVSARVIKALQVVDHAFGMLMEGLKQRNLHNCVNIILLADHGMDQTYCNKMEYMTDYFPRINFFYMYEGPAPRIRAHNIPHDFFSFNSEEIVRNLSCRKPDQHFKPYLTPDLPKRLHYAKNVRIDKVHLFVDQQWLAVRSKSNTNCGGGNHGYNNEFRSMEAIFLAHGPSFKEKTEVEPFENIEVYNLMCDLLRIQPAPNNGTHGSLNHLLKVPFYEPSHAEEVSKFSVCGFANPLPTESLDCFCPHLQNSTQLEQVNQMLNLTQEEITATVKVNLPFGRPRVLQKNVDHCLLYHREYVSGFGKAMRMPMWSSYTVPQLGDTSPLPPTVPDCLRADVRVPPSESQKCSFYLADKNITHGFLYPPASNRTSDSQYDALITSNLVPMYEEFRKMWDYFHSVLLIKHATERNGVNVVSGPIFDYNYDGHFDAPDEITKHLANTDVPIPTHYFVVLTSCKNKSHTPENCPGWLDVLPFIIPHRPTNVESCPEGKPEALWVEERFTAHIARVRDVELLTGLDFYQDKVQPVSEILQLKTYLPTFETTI

[3] = target: T1, Ectonucleotide pyrophosphatase/phosphodiesterase family member 1 (Homo sapiens); experiment: Inhibition of human NPP1 in human Saos2 cells assessed as production of p-nitrophenol using pnp-TMP as the substrate […]; assay type: cell-based; conditions: SAOS-2
P2Y purinoceptor 1 = P2Y purinoceptor 1 (Homo sapiens, UniProt P47900); experiment: Ratio EC50 for ATP to compound for GFP tagged-human P2Y1 receptor expressed in human 1321N1 cells assessed as elevation in calcium level after 30 mins by fluorescence spectrophotometric analysis; assay type: functional, cell-based
Chain of P2Y purinoceptor 1 (P47900 whole entry): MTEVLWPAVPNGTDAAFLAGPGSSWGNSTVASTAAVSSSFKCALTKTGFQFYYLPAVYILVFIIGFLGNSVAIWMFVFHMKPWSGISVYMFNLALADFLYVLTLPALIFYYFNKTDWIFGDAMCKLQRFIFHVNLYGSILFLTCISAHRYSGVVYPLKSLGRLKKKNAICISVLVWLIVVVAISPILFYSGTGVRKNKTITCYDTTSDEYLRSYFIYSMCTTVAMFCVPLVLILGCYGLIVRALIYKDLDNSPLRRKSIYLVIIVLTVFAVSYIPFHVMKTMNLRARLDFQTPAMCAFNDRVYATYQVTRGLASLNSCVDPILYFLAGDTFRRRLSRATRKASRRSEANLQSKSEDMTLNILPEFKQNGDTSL

P2Y purinoceptor 11 = target: T3, P2Y purinoceptor 11 (Homo sapiens, UniProt Q96G91); experiment: Agonist activity at GFP tagged-human P2Y11 receptor expressed in human 1321N1 cells assessed as elevation in calcium level after 30 mins by fluorescence spectrophotometric analysis; assay type: functional, cell-based
T3 sequence (Q96G91 whole entry): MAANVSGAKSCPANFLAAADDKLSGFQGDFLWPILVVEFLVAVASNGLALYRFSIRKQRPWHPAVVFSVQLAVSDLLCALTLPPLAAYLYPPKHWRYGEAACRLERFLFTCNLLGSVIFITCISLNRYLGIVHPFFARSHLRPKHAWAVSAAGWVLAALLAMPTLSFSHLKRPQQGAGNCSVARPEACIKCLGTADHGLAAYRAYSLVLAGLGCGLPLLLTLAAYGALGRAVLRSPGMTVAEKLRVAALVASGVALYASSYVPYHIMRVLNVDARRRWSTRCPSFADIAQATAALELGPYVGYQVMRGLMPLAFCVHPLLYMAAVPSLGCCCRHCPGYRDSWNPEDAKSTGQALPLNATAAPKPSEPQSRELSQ

| inhibition [1] | inhibition [2] | inhibition [3] | Ratio EC50 (P2Y purinoceptor 1) | EC50 (P2Y purinoceptor 11) | Compound |
| --- | --- | --- | --- | --- | --- |
| 60% | 10% | 80% | 200 | – | Nc1ncnc2c1ncn2[C@H]1C[C@H](O)[C@@H](COP(=O)(O)CP(=O)(O)OP(=O)(O)CP(=O)(O)OC[C@H]2O[C@@H](n3cnc4c(N)ncnc43)C[C@@H]2O)O1 |
| 60% | 10% | 90% | 2 | 13 µM | BP(=O)(OP(=O)(O)CP(=O)(O)OC[C@H]1O[C@@H](n2cnc3c(N)ncnc32)[C@H](O)[C@@H]1O)OP(=O)(O)CP(=O)(O)OC[C@H]1O[C@@H](n2cnc3c(N)ncnc32)[C@H](O)[C@@H]1O |
| 60% | 10% | 90% | > 200 | – | BP(=O)(OP(=O)(O)CP(=O)(O)OC[C@H]1O[C@@H](n2cnc3c(N)ncnc32)C[C@@H]1O)OP(=O)(O)CP(=O)(O)OC[C@H]1O[C@@H](n2cnc3c(N)ncnc32)C[C@@H]1O |
| 20% | 10% | 80% | 60 | ≥ 40 µM | Nc1ncnc2c1ncn2[C@@H]1O[C@H](COP(=O)(O)CP(=O)(O)OP(=O)(O)CP(=O)(O)OC[C@H]2O[C@@H](n3cnc4c(N)ncnc43)[C@H](O)[C@@H]2O)[C@@H](O)[C@H]1O |
